From patent US20140024662A1, “COMPOUNDS, SCREENS, AND METHODS OF TREATMENT” (Shanghai Institute of Organic Chemistry, priority 2006, published 2014) come the findings set out here.

SMILES strings stand for the structures. pEC50: −log10 of the molar value. Entries after “also recorded” stand apart in the source; their conditions may differ. Where two headings read alike, the source gives them in different places.

This assay relates to FADD-deficient Jurkat cells. Put plainly: necroptosis assay: FADD-deficient Jurkat cells treated with TNFα, cell viability. The following applies: for EC50 / pEC50: effective concentration for half-maximum response, inhibition of necroptosis in FADD-deficient Jurkat cells treated with TNFα; for activity in the necroptosis assay, in words / Max Prot: FADD-deficient Jurkat cells treated with TNFα; for pEC50: read-out: EC50; for Max Prot: max viability obtained in the presence of a compound. The assay is classed as cell-based, human. From the text:
Herein we describe the structure activity analysis of Nec-5 analogs.

`COc1ccc(-n2c(SCC(C)O)nc3sc4c(c3c2=O)CCCC4)cc1` (stereo not drawn) [Compound 28]: the EC50 entry was “inactive”.

As to `COc1ccc(-n2c(SCC(=O)O)nc3sc4c(c3c2=O)CCCC4)cc1` [Compound 29], the EC50 entry is “inactive”.

For `COc1ccc(-n2c([S+](C)[O-])nc3sc4c(c3c2=O)CCCC4)cc1` (stereo not drawn) [Compound 30], the “activity in the necroptosis assay, in words” value (“activity” for short) is “complete loss of activity” and the EC50 entry was “inactive”.

For `COc1ccc(-n2c(S(C)(=O)=O)nc3sc4c(c3c2=O)CCCC4)cc1` [Compound 31], the “activity” value was “complete loss of activity” and the EC50 result was “inactive”.

Regarding `N#CCSc1nc2sc3c(c2c(=O)n1-c1ccccc1)CCCC3` [Compound 32], the “activity” value was “inactive” and the EC50 result was “inactive”.

On to `COc1ccccc1-n1c(SCC#N)nc2sc3c(c2c1=O)CCCC3` [Compound 33], for which the pEC50 was 4.75 and the “Max Prot” value was 51.2%.

`COc1cccc(-n2c(SCC#N)nc3sc4c(c3c2=O)CCCC4)c1` [Compound 34]: the pEC50 was 5.84 and the “Max Prot” value is recorded as 87.7%.

Consider `CCOc1ccc(-n2c(SCC#N)nc3sc4c(c3c2=O)CCCC4)cc1` [Compound 35], for which the “activity” value is given as “retained some activity; also recorded: showed significant higher activity compared to compound (154)”; the pEC50 is 6.26; the “Max Prot” value is on record as 83.8%.

As to `N#CCSc1nc2sc3c(c2c(=O)n1-c1ccc(OCc2ccccc2)cc1)CCCC3` [Compound 36], the EC50 result is “inactive”.

For `Cc1ccccc1-n1c(SCC#N)nc2sc3c(c2c1=O)CCCC3` [Compound 37], the EC50 entry was “inactive”.

As for `Cc1ccc(-n2c(SCC#N)nc3sc4c(c3c2=O)CCCC4)cc1` [Compound 38], the “activity” value was “retained some activity”; the pEC50 is 5.74; the “Max Prot” value turned out to be 48.6%.

For `N#CCSc1nc2sc3c(c2c(=O)n1-c1ccc(F)cc1)CCCC3` [Compound 39], the “activity” value is “retained significant activity; also recorded: showed substantial activity; also recorded: decreased activity”; the pEC50 is 6.62; the “Max Prot” value is 85.1%.

With `N#CCSc1nc2sc3c(c2c(=O)n1-c1cccc(Cl)c1)CCCC3` [Compound 40], the pEC50 is 5.29 and the “Max Prot” value stood at 66.9%.

With `N#CCSc1nc2sc3c(c2c(=O)n1-c1ccc(Cl)cc1)CCCC3` [Compound 41], the “activity” value is reported as “activity significantly decreased”; the pEC50 was 5.07; the “Max Prot” value is 55.0%.

On to `N#CCSc1nc2sc3c(c2c(=O)n1-c1ccc(Br)cc1)CCCC3` [Compound 42], for which the “activity” value is “activity significantly decreased” and the EC50 entry is “inactive”.

Consider `Cc1ccc(-n2c(SCC#N)nc3sc4c(c3c2=O)CCCC4)cc1C` [Compound 43], for which the pEC50 is 4.78 and the “Max Prot” value is listed as 45.0%.

For the compound `N#CCSc1nc2sc3c(c2c(=O)n1-c1ccc(Cl)c(Cl)c1)CCCC3` [Compound 44], the pEC50 was 5.24 and the “Max Prot” value turned out to be 39.0%.

Turning to `N#CCSc1nc2sc3c(c2c(=O)n1-c1ccc(F)c(F)c1)CCCC3` [Compound 45], the EC50 entry is “inactive”.

As for `COc1ccc(-n2c(SCC#N)nc3sc4c(c3c2=O)CCCC4)c(OC)c1` [Compound 46], the “activity” value was “eliminated activity” and the EC50 entry is “inactive”.

Regarding `COc1ccc(-n2c(SCC#N)nc3sc4c(c3c2=O)CCCC4)cc1OC` [Compound 47], the pEC50 was 5.24 and the “Max Prot” value is 57.0%.

Consider `N#CCCSc1nc2sc3c(c2c(=O)n1-c1ccc2c(c1)OCO2)CCCC3` [Compound 48, 3-(3′,4′)-methylene-dioxyphenyl-5,6-tetramethylenothieno[2,3-d]pyrimidin-4-one-2-mercaptoethylcyanide], for which the “activity” value is given as “showed good activity; also recorded: showed substantial activity; also recorded: showed significant activity”; the pEC50 was 6.05; the “Max Prot” value stood at 100%.

As to `CSc1ccc(-n2c(SCC#N)nc3sc4c(c3c2=O)CCCC4)cc1` [Compound 49], the pEC50 is 5.63 and the “Max Prot” value was found to be 70.0%.

`Cc1cc(Cl)ccc1-n1c(SCC#N)nc2sc3c(c2c1=O)CCCC3` [Compound 50]: the EC50 result was “inactive”.

With `N#CCSc1nc2sc3c(c2c(=O)n1-c1ccc(OC(F)(F)F)cc1)CCCC3` [Compound 51], the “activity” value was “loss of activity” and the EC50 entry was “inactive”.

Take `CSc1nc2sc3c(c2c(=O)n1-c1ccc(OCc2ccccc2)cc1)CCCC3` [Compound 52]: the EC50 entry is “inactive”.

For `CSc1nc2sc3c(c2c(=O)n1-c1ccc(F)cc1)CCCC3` [Compound 53], the “activity” value is recorded as “showed some activity”; the pEC50 is 5.80; the “Max Prot” value was determined as 61.2%.

Consider `CSc1nc2sc3c(c2c(=O)n1-c1ccc(Br)cc1)CCCC3` [Compound 54], for which the EC50 entry is “inactive”.

Take `CSc1nc2sc3c(c2c(=O)n1-c1ccc(C)c(C)c1)CCCC3` [Compound 55]: the pEC50 was 4.78 and the “Max Prot” value was determined as 38.0%.

Consider `CSc1nc2sc3c(c2c(=O)n1-c1ccc(Cl)c(Cl)c1)CCCC3` [Compound 56], for which the EC50 entry was “inactive”.

In the case of `COc1ccc(-n2c(SC)nc3sc4c(c3c2=O)CCCC4)c(OC)c1` [Compound 57], the EC50 entry is “inactive”.

Turning to `COc1ccc(-n2c(SC)nc3sc4c(c3c2=O)CCCC4)cc1OC` [Compound 58], the “activity” value is “showed some activity”; the pEC50 is 4.78; the “Max Prot” value is 54.5%.

Consider `CSc1nc2sc3c(c2c(=O)n1-c1ccc2c(c1)OCO2)CCCC3` [Compound 59], for which the EC50 result is “inactive”.

For the compound `CSc1cccc(-n2c(SC)nc3sc4c(c3c2=O)CCCC4)c1` [Compound 60], the EC50 entry is “inactive”.

`CSc1nc2sc3c(c2c(=O)n1-c1ccc(Cl)cc1C)CCCC3` [Compound 61]: the EC50 result was “inactive”.

With `CSc1nc2sc3c(c2c(=O)n1-c1ccc(OC(F)(F)F)cc1)CCCC3` [Compound 62], the EC50 entry was “inactive”.

On to `COc1ccc(-n2c(SCC#N)nc3sc(C)cc3c2=O)cc1` [Compound 64], for which the EC50 result was “inactive”.

For `CCc1cc2c(=O)n(-c3ccc(OC)cc3)c(SCC#N)nc2s1` [Compound 65], the EC50 result was “inactive”.

Regarding `COc1ccc(-n2c(SCC#N)nc3scc(C)c3c2=O)cc1` [Compound 66], the EC50 result was “inactive”.

In the case of `COc1ccc(-n2c(SCC#N)nc3sc(C)c(C)c3c2=O)cc1` [Compound 67], the “activity” value is recorded as “a high degree of activity is retained; also recorded: showed substantial activity; also recorded: showed significant higher activity compared to compound (154)”; the pEC50 is 6.35; the “Max Prot” value stood at 100%.

Consider `CCc1sc2nc(SCC#N)n(-c3ccc(OC)cc3)c(=O)c2c1C` [Compound 68], for which the pEC50 is 5.28 and the “Max Prot” value came out at 86.8%.

In the case of `CCCc1sc2nc(SCC#N)n(-c3ccc(OC)cc3)c(=O)c2c1C` [Compound 69], the “activity” value was “inactive” and the EC50 result was “inactive”.

Turning to `COc1ccc(-n2c(SCC#N)nc3sc(C(C)C)c(C)c3c2=O)cc1` [Compound 70], the “activity” value was “inactive” and the EC50 result was “inactive”.

Turning to `CCCCCCCCCCCCCCc1sc2nc(SCC#N)n(-c3ccc(OC)cc3)c(=O)c2c1C` [Compound 71], the EC50 entry was “inactive”.

For the compound `CCc1c(C)sc2nc(SCC#N)n(-c3ccc(OC)cc3)c(=O)c12` [Compound 72], the “activity” value is on record as “preserved activity to a significant extent”; the pEC50 was 5.97; the “Max Prot” value is given as 100%.

For `COc1ccc(-n2c(SCC#N)nc3sc4c(c3c2=O)CCC4)cc1` [Compound 73], the “activity” value is reported as “retained most of the activity; also recorded: showed activity; also recorded: exhibited a certain degree of activity”; the pEC50 is 6.35; the “Max Prot” value turned out to be 100%.

For `COc1ccc(-n2c(SCC#N)nc3sc4c(c3c2=O)CCCCC4)cc1` [Compound 74], the “activity” value is recorded as “less active; also recorded: exhibited a certain degree of activity”; the pEC50 was 6.02; the “Max Prot” value was 83%.

For `COc1ccc(-n2c(SCC#N)nc3sc4ccccc4c3c2=O)cc1` [Compound 76], the “activity” value is “retained most of the activity; also recorded: showed substantial activity; also recorded: showed good activity; also recorded: potent inhibitor; also recorded: exhibited a certain degree of activity”; the pEC50 is 6.74; the “Max Prot” value was 83.3%.

Consider `CCN1CCc2c(sc3nc(SCC#N)n(-c4ccc(OC)cc4)c(=O)c23)C1` [Compound 77], for which the “activity” value is “essentially inactive” and the EC50 entry was “inactive”.

As to `COc1ccc(-n2c(SCC#N)nc3sc4c(c3c2=O)CCN(C(C)C)C4)cc1` [Compound 78], the “activity” value was “essentially inactive” and the EC50 entry was “inactive”.

For `COc1ccc(-n2c(SC)nc3sccc3c2=O)cc1` [Compound 79], the EC50 result is “inactive”.

As to `COc1ccc(-n2c(SC)nc3scc(C)c3c2=O)cc1` [Compound 80], the EC50 entry was “inactive”.

Take `COc1ccc(-n2c(SC)nc3sc(C)c(C)c3c2=O)cc1` [Compound 81]: the EC50 result is “inactive”.

As for `CCc1c(C)sc2nc(SC)n(-c3ccc(OC)cc3)c(=O)c12` [Compound 82], the EC50 result is “inactive”.
